Earlier results, collected in patent US5932763A, “Inhibition of matrix metalloproteases by 2-(ω-arolalkyl)-4-biaryl-4-oxobutyric acids” (Bayer Corporation, priority 1997, dated 1999).

What was measured:
human colon tumor = details: given intraperitoneally; orthotopic model in nude mice
[1] = tested on: human ovarian carcinoma xenografts; details: mouse, in vivo
[2] = Child, et al., J. Pharm. Sci., 66, 466, 1977

Row | Compound | human colon tumor growth and spread (human colon tumor) | survival of mice bearing human ovarian carcinoma xenografts [1] | activity of fenbufen analogs (described as inactive) [2]
1 | CNC(=O)[C@H](Cc1ccccc1)NC(=O)[C@H](CC(C)C)[C@H](CSc1cccs1)C(=O)NO [batimastat] | inhibits human colon tumor growth and spread | prolongs the survival | –
2 | O=C(O)CC(C(=O)c1ccc(-c2ccccc2)cc1)c1ccccc1 (centres unmarked) [LXXVII] | – | – | inactive
3 | O=C(CC(C(=O)O)c1ccccc1)c1ccc(-c2ccccc2)cc1 (centres unmarked) [XLIX] | – | – | inactive
4 | CC(CC(=O)c1ccc(-c2ccccc2)cc1)C(=O)O (centres unmarked) [XLVII] | – | – | inactive
